Results taken from patent US7217564B2, “Cytotoxic assay and new established cell line of sturgeon origin” (priority 2002, dated 2007).
Read-outs that look alike come from different tables or passages of the source.

Tests used:
STIP-1 cells = test: cells; format: cell-based, Bester (Huso huso X Acipenser ruthenus); conditions: for EC50: read-out: EC50 (toxicity concentration value which effects on 50% of the cells); for toxicity ranking to the STIP-1 cells: within the tested series (nine heavy metals / twelve phenols)
Excerpt: (§1) The Alamar Blue assay is one of the bioassay methods being developed to measure the cellular metabolisms of the animal cells or the like. The Alamar Blue pigment is an oxidation-reduction pigment which should be incorporated in a cell for its reduction. The Alamar Blue pigment has the characteristics to be changed from an oxidation type (non-fluorescence/blue) to a reduction type (fluorescence/red) by the reduction reaction of the respiratory metabolism system done in mitochondria. If the cellular metabolism is normal, the reduction reaction proceeds in normal. On the other hand, if the cellular metabolism becomes abnormal, the oxidation type is remained as it is. Therefore, the abnormality of a cellular metabolism can be determined by measuring the change in color. Furthermore, the measurement of a cellular metabolism may be based on the fluorescence and the light absorption. In this case the fluorescence is monitored by an excitation wavelength of 530 nm to 560 nm and a detection wavelength of 590 nm, and the light absorption is monitored at wavelengths of 570 nm and 600 nm.
Cells were cultured in a 96-well microtiter plate in a CO2 incubator (air atmosphere) at 20° C. until it became confluent. The culture was performed using a culture medium prepared by adding 10% fetal bovine serum (FBS) (manufactured by Gibco Co., Ltd.), penicillin (10 unit/ml) and streptomycin (50 μg/ml) in a Leibovitz's L15 culture medium (manufactured by Gibco Co., Ltd.).
A 0.2M aqueous solution of a specimen (cadmium chloride, CdCl2.2H2O) was prepared and was then sterilized by passing through a filter of 0.2 μm in pore size to be preserved at 4° C. […] For a comparison example, the culture medium in the absence of the specimen was inoculated in a well. After 24 hours passed, an Alamar Blue pigment was added and an additional culture was continued for further 24 hours.
Subsequently, by using a microplate reader, the light absorbance of each well was measured using two wavelengths (570 nm and 600 nm). The inhibition value of a cellular metabolism with the cadmium aqueous solution was measured as a reduction rate of a well (a sample) inoculated with a cadmium aqueous solution to a well only containing the culture medium as a control. The calculation was performed using the following equation.
A=sample well (A570 nm−A600 nm)−blank well (A570 nm−A600 nm), and
B=control well (A570 nm−A600 nm)−blank well (A570 nm−A600 nm).
In addition, (A/B)×100 means a survival rate (%) of cells.
(B) Evaluations of toxicities of eight kinds of heavy metals except of cadmium to the STIP-1 cells were performed by the same way as described in the above (A).

STIP-3 cells = test: Cytotoxic test using STIP-3 cells, Alamar Blue assay; format: cell-based, Bester (Huso huso X Acipenser ruthenus); conditions: 20° C., 24 hours with specimen, then Alamar Blue for further 24 hours, read-out: EC50 (toxicity concentration value which effects on 50% of the cells)
Excerpt: as §1
Cells were cultured in a 96-well microtiter plate in a CO2 incubator (air atmosphere) at 20° C. until it became confluent. […]
Subsequently, by using a microplate reader, the light absorbance of each well was measured using two wavelengths (570 nm and 600 nm). […]

[1] = Huso huso, STIP-1 cells, 20° C., 24 hours with specimen, then Alamar Blue for further 24 hours
[2] = STIP-1 cells, 20° C., 24 hours with specimen, then Alamar Blue for further 24 hours

| Molecule | EC50 (STIP-1 cells; [1]) [µM] | EC50 (STIP-1 cells; [2]) [µM] | other results |
| --- | --- | --- | --- |
| Oc1c(Cl)cc(Cl)c(Cl)c1Cl [2,3,4,6-tetrachlorophenol] | 9 | – | – |
| Oc1cccc(Cl)c1Cl [2,3-dichlorophenol] | 80 | – | – |
| Oc1cc(Cl)c(Cl)cc1Cl [2,4,5-trichlorophenol] | 7 | – | toxicity ranking to the STIP-1 cells (STIP-1 cells): strongest toxicity |
| Oc1ccc(Cl)cc1Cl [2,4-dichlorophenol] | 55 | – | – |
| Oc1cc(Cl)ccc1Cl [2,5-dichlorophenol] | 56 | – | – |
| Oc1c(Cl)cccc1Cl [2,6-dichlorophenol] | 900 | – | – |
| Oc1ccc(Cl)c(Cl)c1 [3,4-dichlorophenol] | 30 | – | – |
| [Cl-].[Cl-].[Co+2] [CoCl2.6H2O] | – | 2200 | – |
| [Cl][Cu][Cl] [CuCl2.2H2O] | – | 1320 | – |
| O.O.O.O.[Cl][Mn][Cl] [MnCl2.4H2O] | – | – | toxicity to the STIP-1 cells more than that to the culture cells of other fish origins (STIP-1 cells): about 10 times; EC50 (STIP-1 cells): 400 µM |
| [Cl][Ni][Cl] [NiCl2.6H2O] | – | – | EC50 (STIP-1 cells): > 10000 µM |
| O=[N+]([O-])[O-].O=[N+]([O-])[O-].[Pb+2] [Pb(NO3)2] | – | 3300 | – |
| Oc1c(Cl)c(Cl)c(Cl)c(Cl)c1Cl [Pentachlorophenol] | 90 | – | – |
| Oc1ccccc1 [Phenol] | – | – | EC50 (STIP-1 cells; Huso huso, 24 h): 8600 µM |
| O=S(=O)([O-])[O-].[Zn+2] [ZnSO4.7H2O] | – | 400 | – |
| [Cl][Cd][Cl] [cadmium, cadmium chloride] | – | 89 | EC50 (STIP-3 cells): 100 µM |
| Oc1ccc(Cl)cc1 [p-chlorophenol] | 800 | – | – |
| O=[N+]([O-])c1ccc(O)cc1 [p-nitrophenol] | 350 | – | – |
| HgCl2 | – | – | EC50 (STIP-1 cells): 85 µM |
| Tributyl tin | – | 0.9 | EC50 (STIP-1 cells; STIP-1 cells, 20° C., 24 hours with specimen, then Alamar Blue for further 24 hours, listed as tributyl tin): 0.9 µM; toxicity at a concentration lower than other heavy metals (STIP-1 cells; STIP-1 cells, compared with other heavy metals): about 100 times; toxicity ranking to the STIP-1 cells (STIP-1 cells): strongest toxicity |
